According to patent US20110171230A1, “Method of Identifying Agents that Promote Axonal Development” (The Johns Hopkins University, priority 2008, published 2011):

Columns and labels:
[1] = test system: TRPC1 binding to GST-Homer; assay: GST-Homer pull-down of TRPC1 from lysates of treated HEK293 cells; type: cell-based, human; conditions: HEK293 cells transfected with HA-TRPC1 and FKBP52, GPI-1046 1 nM, 100 nM, 500 nM, 1 μM for 30 min
Experimental: GST pull-down, Co-IP and immunocytochemistry. Protein binding assays were done as previously described (Yuan et al., Cell 114:777-89, 2003). Transfected cells were harvested and lysed using 500 μl of binding buffer (1×PBS buffer containing 1 mM NaVO3, 10 mM NaPyrophosphate, 50 mM NaF [pH 7.4], and 1% Triton X-100). The cell extracts were sonicated, and insoluble material was spun down at 30,000 g for 20 min. For GST pull-down, GST-H3 EVH was expressed in BL21 bacterial cells by growing a 400 ml culture at 37 C until […] was 0.4-0.6. Cells were induced with […] IPTG for an additional hour, harvested, lysed in […] of 1% Triton X-100 in 1×PBS+[…] PMSF, sonicated 3×10 strokes, and spun down at 12,000 g for 5 min. The supernatant was mixed 1:1 with a slurry of GST-agarose beads (Sigma) for 30 min at 4 C. Beads were washed 2 times with 1% Triton X-100 in 1×PBS and 2 times with 1×PBS. 50 μl of 1:1 slurry of GST-H3 EVH beads were used per 100 μl cell extract and rocked for 2 hr at 4° C. For co-IP experiments, 1 μg of purified antibody or 2 μl of crude antiserum was added to 100 μl of cell extract and incubated for 1 hr at 4° C. Then, 1:1 slurry of protein A or G SEPHAROSE 4B beads were added to the antibody-extract mix and incubated for an additional hour at 4° C. […]

[2] = test system: growth cones of Xenopus spinal neurons; assay: Ca2+ imaging of growth cones of cultured spinal neurons (netrin-1-induced Ca2+ rise); type: cell-based
Experimental: Ca^2+ imaging of cultured spinal neurons. Ca^2+ imaging of growth cones of Xenopus spinal neurons was carried out as previously described (Ming et al., Nature 417:411-8, 2002; and Ming et al., Neuron 19:1225-35, 1997). Specifically, isolated Xenopus spinal neurons were loaded with Fluo-4 AM (2 μM, Molecular Probes) in the culture media without serum for 30 min at room temperature, and rinsed with the media for growth cone turning assay. Ca^2+ imaging was performed using a Zeiss 510 META system equipped with a 20× objective (NA 0.8). Excitation was at 488 nm by argon laser and the emitted fluorescence was collected at […]. Fluorescence and bright-field images were simultaneously acquired at every 30 seconds with a frame scan. The fluorescence intensity of each time point was measured over a fixed rectangular region of interest that covers the entire growth cone and normalized to the average fluorescence intensity that was measured during a 5 min baseline period (prior to netrin-1 application).

[3] = test system: growth cones of Xenopus spinal neurons; assay: Growth cone turning assay in a netrin-1 gradient; type: cell-based; conditions: for growth cone turning response in a GPI-1046 gradient: GPI-1046 100 μM in the pipette
Experimental: Growth cone turning assay. Microscopic gradients of netrin-1 (5 μg/ml in the pipette), MAG (150 μg/ml in the pipette) and GPI-1046 (100 μM in the pipette) were produced as previously described (Lohof et al., J Neurosci 12:1253-61, 1992; and Zheng et al., Nature 368:140-4, 1994). […] Xenopus spinal neurons were used 14 to 20 hrs after plating and neurons with the lineage-tracer were identified under fluorescent microscope and used for turning assay at room temperature as previously described (Ming et al., Nature 417:411-8, 2002; Ming et al., Neuron 19:1225-35, 1997; Lohof et al., J Neurosci 12:1253-61, 1992; and Zheng et al., Nature 368:140-4, 1994). GFP^+ hippocampal neurons were used 48-72 hours after plating and individual axon was identified for turning assay at the room temperature. The turning angle was defined by the angle between the original direction of neurite extension and a straight line connecting the positions of the center of the growth cone at the onset and the end of the 30 min period. The rates of neurite extension were calculated based on the net neurite extension during the turning assay. Only those growth cones of isolated neurons with a net neurite extension >5 μm over the 30-min period were included for analysis. Statistical significance was assessed using the Kolmogorov-Smirnov test.

[4] = test system: axonal growth cones of rat hippocampal neurons; assay: Growth cone turning assay in a MAG gradient; type: cell-based; conditions: MAG 150 μg/ml in the pipette
Experimental: Primary hippocampal neuronal cultures and transfection. Hippocampal neurons were isolated from postnatal rats (P3-P5) and were cultured on poly-L-lysine coated coverslips as previously described (Song et al., Nature 417:39-44, 2002). These neurons were transfected with the AMAXA transfection system following protocols from the manufacturer. Briefly, hippocampal neurons were isolated and 100 μl of nucleofector solution was added to resuspend the cell pellet. Different expression constructs (1-5 μg), GFP, FKBP52-FD67DV, TRPC1-P645A or a combination of TRPC1-P645A and FKBP52-WT, were added to the cell suspension and then transferred to cuvettes for electroporation. The cells were cultured in DMEM with 10% fetal bovine serum for 24 hrs before changing to serum-free neurobasal medium (Song et al., Nature 417:39-44, 2002). Growth cone turning assay. Microscopic gradients of netrin-1 (5 μg/ml in the pipette), MAG (150 μg/ml in the pipette) and GPI-1046 (100 μM in the pipette) were produced as previously described (Lohof et al., J Neurosci 12:1253-61, 1992; and Zheng et al., Nature 368:140-4, 1994). […] The rates of neurite extension were calculated based on the net neurite extension during the turning assay. […] Statistical significance was assessed using the Kolmogorov-Smirnov test.

[5] = test system: commissural interneuron axons in developing Xenopus embryos; assay: Commissural interneuron axon midline guidance in developing spinal cord (3A10 immunostaining); type: in vivo
Experimental: Xenopus embryo injection and cell culture. Blastomere injections of morpholino oligos or mRNAs encoding TRPC1, FKBP52 or their mutant forms into early stages of Xenopus embryos and culturing of spinal neurons from these injected embryos were performed as previously described (Shim et al., Nat Neurosci 8:730-5, 2005). Specifically, fertilized embryos were injected at the one- or two-cell stage, with a mixture of the morpholino (10 ng/embryo) or mRNA (2-3 ng/embryo), and a lineage tracer. The following DNA constructs were subcloned into the pCS2 vector and used for in vitro transcription with the mMESSAGE mMACHINE SP6 kit (Ambion): Myc-FKBP52-WT, Myc-FKBP52-FD67DV, HA-TRPC1-WT, HA-TRPC1-P645L, HA-TRPC1-P645A, GFP-XTRP C1. A morpholino oligo directed against Xenopus DCC (XDCC-MO) was designed with the following sequence: 5′ […] 3′. Injected embryos at stage 22 were used for cultures of spinal neurons as previous described (Shim et al., Nat Neurosci 8:730-5, 2005).
Whole-mount immunocytochemistry and confocal imaging. Embryos at stage 23-28 were fixed and processed for immunocytochemistry as previously described (Shim et al., Nat Neurosci 8:730-5, 2005; and Gomez et al., Nature 397:350-5, 1999). […] Statistical significance was assessed using the Bootstrap test and accepted if p <0.01.

FKBPs = conditions: Steiner et al., PNAS 94:2019-24, 1997; cited from earlier work
calcineurin = conditions: Steiner et al., PNAS 94:2019-24, 1997; cited from earlier work

| Compound | TRPC1 binding to GST-Homer [1] | netrin-1-induced Ca2+ rise in growth cones ([2]; Xenopus spinal neurons, Fluo-4, netrin-1 5 ng/ml, GPI-1046 100 nM in bath) | growth cone turning response in a GPI-1046 gradient ([3]; uniform netrin-1 10 ng/ml in the bath) | growth cone turning response in a GPI-1046 gradient ([3]; without uniform netrin-1 stimulation) | growth cone turning response in a netrin-1 gradient ([3]; netrin-1 5 μg/ml in the pipette, bath application of 100 nM, 30 min) | MAG-induced growth cone repulsion [4] | commissural interneuron axon midline guidance ([5]; 0.5 μM applied to Xenopus embryos between stage 22-25) | inhibition of FKBP isomerase activity (FKBPs) | inhibition of calcineurin (calcineurin) | netrin-1-induced Ca2+ rise in growth cones ([2]; neurons from embryos injected with morpholino (10 ng/embryo)) | commissural interneuron axon midline guidance ([5]; morpholino injected at the one-cell stage, stage 25 embryos) |
| --- | --- | --- | --- | --- | --- | --- | --- | --- | --- | --- | --- |
| CCC(C)(C)C(=O)C(=O)N1CCC[C@H]1C(=O)OCCCc1cccnc1 [GPI-1046, 3-(3-pyridyl)-1-propyl (2S)-1-(3,3-dimethyl-1,2-dioxopentyl)-2-pyrrolidinecarboxylate] | increased TRPC1 binding to GST-Homer | abolished netrin-1-induced Ca^2+ rise | significant repulsive turning responses | no bias in the direction of growth cone extension | blocked netrin-1-induced attraction | abolished MAG-induced repulsion | significant guidance defects | inhibits their isomerase activity | does not inhibit calcineurin |  |  |
| XDCC-MO: morpholino oligo directed against Xenopus DCC, 5′ CCAAGACAATTCTCCATATTTCAGC 3′ (all phosphorodiamidate morpholino (PMO)) |  |  |  |  |  |  |  |  |  | abolished netrin-1-induced Ca^2+ rise | failed to reach the midline |
